Reference: patent US10793543B2, “Selective C-KIT kinase inhibitor” (PRECEDO PHARMACEUTICALS CO., LTD, priority 2016, dated 2020)

Key:
[1] = system: Tel-cKit-BaF3 cells (KIT WT); experiment: Cell proliferation, CCK-8, Tel-cKit-BaF3; assay type: cell-based; conditions: Mus musculus, 72 hours
Text: (§1) In addition, in the present example, further uses: mouse P210/BaF3 (stably expressing P210 Bcr-Abl mutant gene), mouse Tel-ABL-BaF3 (stably expressing wild-type ABL kinase), mouse Tel-cKit-BaF3 (stably expressing C-KITwild-type kinase), mouse Tel-cKit/V559D-BaF3 (stably expressing C-KIT V559D mutant kinase), mouse Tel-cKit/V559D/V654A-BaF3 (stably expressing C-KIT V559D/V654A mutant kinase), mouse Tel-cKit/N822K-BaF3 (stably expressing C-KIT N822K mutant kinase), mouse Tel-cKit/V654A-BaF3 (stably expressing C-KIT V654A mutant kinase), mouse Tel-cKit/L567P-BaF3 (stably expressing C-KIT L567P mutant kinase), mouse Tel-cKit/T670I-BaF3 (stably expressing C-KIT T670I mutant kinase), mouse Tel-PDGFRα-BaF3 (stably expressing PDGFRα kinase), mouse Tel-PDGFRβ-BaF3 (stably expressing PDGFRβ kinase), mouse Tel-VEGFR2-BaF3 (stably expressing VEGFR2 kinase), mouse Tel-RET-BaF3 (stably expressing RET kinase). The above cell lines were all constructed by our laboratory according to the following method: the kinase region sequences of human P210 Bcr-Abl, ABL, C-KIT, C-KIT V559D, C-KIT V559D/V654A, C-KIT N822K, C-KIT V654A, C-KIT L567P, C-KIT T670I, PDGFRα, PDGFRβ, VEGFR2, RET were amplified respectively by PCR, inserted respectively into MSCV-Puro vectors harboring N-terminal TEL fragment and/or NPM fragment and/or TPR fragment (Clontech), then the vectors were stably transfected into mouse BaF3 cells by retrovirus methods and growth factor IL-3 was removed, eventually obtaining cell lines that are transferred protein (P210 Bcr-Abl, ABL, C-KIT, C-KIT V559D, C-KIT V559D/V654A, C-KIT N822K, C-KIT V654A, C-KIT L567P, C-KIT T670I, PDGFRα, PDGFRβ, VEGFR2, RET)-dependent.
(§2) The cells were incubated for 72 hours, and then the number of viable cells was quantified with a microplate reader by using CCK-8 Cell Viability Assay Kit (purchased from Bestbio Company, Shanghai, China) (CCK-8 can be reduced by dehydrogenase in living cells to a highly water-soluble yellow formazan product, and the amount of formazan produced is proportional to the number of living cells).

[2] = system: Tel-PDGFRα-BaF3 cells (PDGFRα); experiment: Cell proliferation, CCK-8, Tel-PDGFRα-BaF3; assay type: cell-based; conditions: Mus musculus, 72 hours
Text: as §1, §2

[3] = system: GIST-T1 cells; experiment: Cancer cell proliferation, CCK-8, GIST-T1; assay type: cell-based; conditions: Homo sapiens, GISTT1, GIST-T1, KIT WT, 72 hours
Text: (§3) In the present example, the following cells were used: chronic myelogenous leukemia cells K562 (expressing P210 Bcr-Abl mutant gene), human megakaryocytic leukemia cells MEG-01 (expressing P210 Bcr-Abl mutant gene), human peripheral blood basophilic leukemia cells Ku812 (expressing Bcr-Abl mutant gene) (all above cells purchased from ATCC, USA), human gastrointestinal stromal tumor cell lines GIST-T1 cells (expressing wild-type C-KIT gene) (purchased from Cosmo Bio Co., Ltd., Japan), human gastrointestinal stromal tumor cell lines GIST-882 cells (expressing wild-type C-KIT gene) (presented by the Professor Gray Lab, Dana-Farber Cancer Institute, Harvard University, USA), mouse pro-B cells BaF3 (purchased from ATCC, USA).
as §2

[4] = system: Tel-cKit/V559D-BaF3 cells (KIT V559D); experiment: Cell proliferation, CCK-8, Tel-cKit/V559D-BaF3; assay type: cell-based; conditions: Mus musculus, 72 hours
Text: as §1, §2

[5] = system: cells expressing wild-type C-KIT kinase; experiment: Cell proliferation, C-KIT cells; assay type: cell-based; conditions: cells expressing C-KIT kinase, summary of Table 2
Text: as §3, §1, §2

[6] = system: BaF3 cells; experiment: Cell proliferation, CCK-8, parental BaF3; assay type: cell-based; conditions: Mus musculus, 72 hours
Text: as §3, §2

[7] = system: Tel-PDGFRβ-BaF3 cells (PDGFRβ); experiment: Cell proliferation, CCK-8, Tel-PDGFRβ-BaF3; assay type: cell-based; conditions: Mus musculus, 72 hours
Text: as §1, §2

[8] = system: Tel-cKit/V654A-BaF3 cells (KIT V654A); experiment: Cell proliferation, CCK-8, Tel-cKit/V654A-BaF3; assay type: cell-based; conditions: Mus musculus, 72 hours
Text: as §1, §2

[9] = system: Tel-RET-BaF3 cells (RET WT); experiment: Cell proliferation, CCK-8, Tel-RET-BaF3; assay type: cell-based; conditions: Mus musculus, 72 hours
Text: as §1, §2

[10] = system: Tel-VEGFR2-BaF3 cells (VEGFR2); experiment: Cell proliferation, CCK-8, Tel-VEGFR2-BaF3; assay type: cell-based; conditions: Mus musculus, Tel-VEGFR2-BaF3, VEGFR2, 72 hours
Text: as §1, §2

[11] = system: Tel-cKit/N822K-BaF3 cells (KIT N822K); experiment: Cell proliferation, CCK-8, Tel-cKit/N822K-BaF3; assay type: cell-based; conditions: Mus musculus, 72 hours
Text: as §1, §2

[12] = system: Tel-cKit/V559D/V654A-BaF3 cells (KIT V559D/V654A); experiment: Cell proliferation, CCK-8, Tel-cKit/V559D/V654A-BaF3; assay type: cell-based; conditions: Mus musculus, 72 hours
Text: as §1, §2

[13] = system: Tel-cKit/T670I-BaF3 cells (KIT T670I); experiment: Cell proliferation, CCK-8, Tel-cKit/T670I-BaF3; assay type: cell-based; conditions: Mus musculus, 72 hours
Text: as §1, §2

[14] = Acute toxicity assay in mice, single oral gavage; assay type: in vivo; conditions: for Number of death (number of death/number of animals in each group): female mice, 7 days observation
Method: 1. 4-6 week-old Bal b/c female mice were purchased from Shanghai SLAC Experimental Animal Co., Ltd., and were raised in a SPF-level laboratory. Drinking water and padding were both subjected to aseptic processing via high-pressure disinfection, and all operations of the mice were conducted under aseptic conditions; 10 healthy mice were selected, and were balanced and randomly divided into 5 groups according to their weights.
2. Specific Information for Administration
Route of administration: oral gavage
Observation period: 7 days.
3. Observation Indicators
Weighing frequency: upon grouping, the day of administration (D0) to the seventh day after administration (D7). Based on the mouse weight on D0 (starting value of 100%), the graph of the relative body weight over time was plotted.
3.2. Clinical Symptoms Observation
Strict observation was carried out within 4 hours after administration, and then observation was carried out twice a day for a total of 7 days. Observation was carried out and abnormal symptoms or phenomena in each of animals were recorded.
The number of animals died in each of dosage groups during the observation period.
Comprehensive determination was performed based on animal mortality, clinical symptoms and body weights.

[15] = system: GIST-882 cells; experiment: Cancer cell proliferation, CCK-8, GIST-882; assay type: cell-based; conditions: Homo sapiens, GIST882, GIST-882, KIT WT, 72 hours
Text: as §3, §2

[16] = system: phosphorylation of Bcr-Abl kinase and pathway proteins in K562 cells; experiment: Effects on cell signaling pathways (phosphorylation), K562; assay type: cell-based, human; conditions: K562, 0.1 μM, 2 hours
[17] = system: Tel-cKit/L576P-BaF3 cells (KIT L576P); experiment: Cell proliferation, CCK-8, Tel-cKit/L576P-BaF3; assay type: cell-based; conditions: Mus musculus, 72 hours
Text: as §1, §2

Structure (SMILES) | GI50 [1] [µM] | GI50 [2] [µM] | GI50 [3] [µM] | GI50 [4] [µM] | GI50 [6] [µM] | GI50 [7] [µM] | GI50 [8] [µM] | GI50 [9] [µM] | GI50 [10] [µM] | GI50 [11] [µM] | also measured
Cc1ccc(NC(=O)c2ccc(CN3CCN(C)CC3)c(C(F)(F)F)c2)cc1OC1CCN(C(=O)c2ccncc2)CC1 [B] | 0.17 | 0.015 | 0.027 | 0.02 | > 10 | 0.04 | 0.585 | 0.3 | 0.007 | 0.13 | GI50 [5]: < 0.5 µM
Cc1ccc(NC(=O)c2ccc(CN3CCN(C)CC3)c(C(F)(F)F)c2)cc1OC1CCN(C(=O)c2cccnc2)CC1 [Compound A] | 0.147 | 0.095 | 0.014 | 0.134 | > 10 | 0.052 | 2.26 | 0.39 | 0.017 | 0.378 | GI50 [12]: 2.45 µM; GI50 [13]: 1.01 µM; Number of death (number of death/number of animals in each group) ([14]; 250 mg/kg single oral gavage): ♀: 0/2; Number of death (number of death/number of animals in each group) ([14]; 500 mg/kg single oral gavage): ♀: 0/2; clinical symptoms ([14]; 1000 mg/kg single oral gavage): started to be quiet and lie down around 40 minutes; mice died ([14]; 1000 mg/kg single oral gavage): 1; Number of death (number of death/number of animals in each group) ([14]; 1000 mg/kg single oral gavage): ♀: 1/2; clinical symptoms ([14]; 2000 mg/kg single oral gavage): gait of mice was unstable; mice died ([14]; 2000 mg/kg single oral gavage): 2; Number of death (number of death/number of animals in each group) ([14]; 2000 mg/kg single oral gavage): ♀: 2/2; GI50 [15]: 0.067 µM; proteins in Bcr-Abl signaling pathways upstream and downstream [16]: very strong inhibitory effects; GI50 [17]: 0.321 µM
